{"source": "patent US20060205761A1", "about": "“Ccr-2 antagonists for treatment of neuropathic pain” (priority 2003, published 2006)", "key": {"[1]": {"test_system": "formalin-induced pain behavior", "experiment": "Mouse formalin test", "format": "in vivo", "conditions": "for decrease of pain behavior in the formalin test: 60 min before formalin", "method": "Formalin Test: For 4 days prior to testing, mice were acclimated for 2 hours every day on the test platform. On the day of study, mice were placed for 1 hour on the test platform, and subsequently were administered 10 μl of 2% formalin in the plantar surface of the left paw. The time mice spent either licking or lifting the injected paw was recorded over 2-minute periods at 5-minute intervals for 50 minutes. […] Phase 1 (0-10 min post-injection) is considered to reflect acute pain, whereas phase 2 (10-50 min post-injection) reflects chronic, inflammatory pain. The formalin test: a quantitative study of the analgesic effects of morphine, meperidine, and brain stem stimulation in rats and cats. Pain. December 1977;4(2):161-74) Intragastrical administration by gavage: Compound and vehicle were given via a 18 G Gavage needle at 0.2 ml/30 g of the mouse body weight. Compounds: A CCR-2 antagonist having the formula: [drawing 1085] (CCR-2 Antagonist “A”) was tested in the formalin test and the mouse nerve injury model. A second CCR-2 antagonist: [drawing 1086] (CCR-2 Antagonist “B”) was tested in the formalin test only. Both compounds were diluted in 0.5% methylcellulose and were dosed p.o. at a volume of 0.2 ml per 30 g body-weight. For the formalin test, compounds were administered 60 min before the formalin injection. For the nerve injury model, Compound A was tested 4-5 days after surgery. A third CCR-2 antagonist having the formula: [drawing 1087] (CCR-2 Antagonist “C”) was tested in the rat nerve model, MCP-1 co-administration model, the carrageenan model and the CFA model. The compound was dissolved into ethanol/H2O=9/95 prior to testing."}, "[2]": {"test_system": "mechanical allodynia induced by MCP-1", "experiment": "Intrathecal MCP-1 injection and co-injection with CCR-2 antagonist, 50% paw withdrawal threshold", "format": "in vivo", "conditions": "rat", "method": "Intrathecal administration by intrathecal catheter: Using Hamilton syringe to inject each rat: 5 μl compound or vehicle, 1 μl air and 9 μl vehicle. Intrathecal catheterization. After shaving the back of the head and neck, the rats were placed in a stereotaxic headholder with the head flexed forward. A 8-cm saline filled polyethylene tube (PE5) was placed into the subarachnoid space through a small puncture and threaded caudally so that the caudal tip rested on the rostral edge of the lumbar enlargement. The rats were allowed to recover for a minimum of 2-3 days prior to further study. […] Animals with impaired motor function (e.g. hind limb paralysis) were euthanized. Compounds: A CCR-2 antagonist having the formula: [drawing 1085] (CCR-2 Antagonist “A”) was tested in the formalin test and the mouse nerve injury model. A second CCR-2 antagonist: [drawing 1086] (CCR-2 Antagonist “B”) was tested in the formalin test only. Both compounds were diluted in 0.5% methylcellulose and were dosed p.o. at a volume of 0.2 ml per 30 g body-weight. For the formalin test, compounds were administered 60 min before the formalin injection. For the nerve injury model, Compound A was tested 4-5 days after surgery. A third CCR-2 antagonist having the formula: [drawing 1087] […] At Day 0, 1, 3, 4, 7, 10, 11, 15, 18 and 21 post dosing, 50% paw withdrawal threshold was determined."}, "[3]": {"test_system": "mechanical allodynia after spinal nerve ligation", "experiment": "L5-L6 spinal nerve ligation (Chung) model, 50% paw withdrawal threshold / % MPE", "format": "in vivo, Sprague-Dawley rat", "conditions": "rat", "method": "Intragastrical administration by gavage: Compound and vehicle were given via a 15 G Gavage needle at 1 ml/100 g of the rat body weight. L5-L6 Spinal Nerve Ligation (Chung): Male Sprague-Dawley rats (Taconic) were anesthetized with 2% gaseous isofluorane (For induction 3-5% and O2 […], for maintenance 2-3% and O2 […]). Following dorsal skin incision and muscle separation, the posterior interarticular traverse process of L/S1 was exposed and carefully removed with a mircro Rongeur. The L5 and L6 spinal nerves were tightly ligated by a square knot with 6-0 silk thread. The muscles were closed with 4-0 absorbable sutures and the skin was closed with wound clips. […] Animals were pre-tested and non-sensitive rats (50% paw withdrawal threshold above 3 g) were also excluded from compound testing. The results were expressed either as 50% paw withdrawal threshold, or in % maximal possible effect (MPE). MPE was calculated as follows: [formula] Pre-operation cut-off value is 15 grams. CCR-2 Antagonist C was evaluated in a multiple dosing study for 5 days. […] 50% paw withdrawal threshold following multiple dosing (3 mg/kg, PO, b.i.d.) of CCR-2 Antagonist C. Five days post spinal nerve ligation, the animals were tested before and 1 hr after dosing at 7 a.m. each day for 5 days. Data=Mean±SEM, n=10 rats. Efficacy: % MPE. […]"}, "[4]": {"test_system": "CFA-induced weight bearing deficit", "experiment": "Rat Complete Freund's Adjuvant (CFA) model, weight bearing", "format": "in vivo, Sprague-Dawley rat", "method": "Complete Freund's Adjuvant (CFA): Male Sprague-Dawley rats (Charles River) were injected with CFA (150 μl) intraplantar into their left paw. This study included 3 groups: (1) CCR-2 Antagonist C at 3 mg/kg bid started 2 hours before CFA injection, (2) vehicle group and (3) CCR-2 Antagonist C at 10 mg/kg given on day 3 post-CFA (rats received vehicle on day 0-2)(n=6 per group). Rats were dosed for 3.5 days bid. Before the morning dose and two hours after it, weight bearing and paw size were measured. On the final day of the study (day 3 post-CFA) in addition to weight bearing, paw pressure threshold was also evaluated at 2 hr post dose."}}, "data": [{"compound": "CC(C)[C@]1(C(=O)N2CCc3ccc(C(F)(F)F)cc3C2)CCC(N[C@H]2CCOC[C@H]2C)C1", "note": "(some centres unmarked) [CCR-2 Antagonist A]", "values": [{"measurement": "effect in the formalin test versus vehicle", "setting": "[1]; 1 mg/kg p.o.", "value": "No difference with the vehicle group"}, {"measurement": "decrease of pain behavior in the formalin test", "setting": "[1]; 3 mg/kg p.o.", "value": 50, "unit": "%"}, {"measurement": "effect on phase 2 times of the formalin test", "setting": "[1]; 3 mg/kg p.o.", "value": "significantly decreased"}, {"measurement": "effect on phase 2 times of the formalin test", "setting": "[1]; 30 mg/kg p.o.", "value": "significantly decreased"}, {"measurement": "effect on phase 1 of the formalin test", "setting": "[1]; p.o., phase 1", "value": "no effect"}]}, {"compound": "CO[C@H]1COCC[C@H]1NC1CC[C@@](C(=O)N2CCc3ncc(C(F)(F)F)cc3C2)(C(C)C)C1", "note": "(some centres unmarked) [CCR-2 Antagonist B]", "values": [{"measurement": "decrease of phase 2 of the formalin test", "setting": "[1]; 10 mg/kg", "value": 20, "unit": "%"}, {"measurement": "decrease of pain behavior in the formalin test", "setting": "[1]; 30 mg/kg p.o.", "value": 30, "unit": "%"}, {"measurement": "decrease of phase 2 of the formalin test", "setting": "[1]; 30 mg/kg", "value": 30, "unit": "%"}]}, {"compound": "CC(C)[C@]1(C(=O)N2CCc3ncc(C(F)(F)F)cc3C2)CC[C@@H](NC2CCOC[C@H]2C)C1", "note": "(some centres unmarked) [CCR-2 Antagonist C]", "values": [{"measurement": "anti-allodynic effect (50% paw withdrawal threshold) of co-injection with MCP-1", "setting": "[2]; 20 μg/rat via intrathecal catheter with MCP-1 750 ng/rat, day 4, 7, 10 and 11", "value": "partial preemptive anti-allodynic effect"}, {"measurement": "effect of co-injection with MCP-1 on development of mechanical allodynia", "setting": "[2]; intrathecal co-injection with MCP-1", "value": "inhibited and delayed the development of mechanical allodynia"}, {"measurement": "efficacy in multiple dosing study (50% paw withdrawal threshold)", "setting": "[3]; 3 mg/kg PO b.i.d. for 5 days", "value": "significant efficacy"}, {"measurement": "Efficacy: % MPE, day from which efficacy is significant", "setting": "[3]; 3 mg/kg PO b.i.d., tested before and 1 hr after dosing each day for 5 days", "value": "Significant efficacy was observed starting at day 3"}, {"measurement": "effect on weight bearing", "setting": "[4]; 3 mg/kg bid, day 2 and 3", "value": "significantly reversed weight bearing"}, {"measurement": "effect on weight bearing on the affected limb", "setting": "[4]; 10 mg/kg, day 3", "value": "significantly reversed weight bearing"}]}]}
